Measurements published in US20130207041A1, “FLUORESCENT COMPOUND, MAKING METHOD, AND FLUORESCENT RESIN COMPOSITION” (Shin-Etsu Chemical Co., Ltd., priority 2012, published 2013).
≈ marks a conversion by molar mass, not a printed value.

Assays:
[1] = Solubility in transparent silicone resin SIM-360 matrix; details: room temperature, stirring; judged dissolved when solution became transparent
[2] = in ethanol

With `CCCCCCC1(CCCCCC)c2cc(-c3ccc(-c4ccccc4)cc3)ccc2-c2ccc(-c3ccc(-c4ccccc4)cc3)cc21` [Compound #5, 2,7-Bis(Biphenyl)-9,9′-Dihexylfluorene, reference compound] the “solubility in silicone resin SIM-360 matrix” value (“solubility” for short) [1] was “could not be dissolved”.

In the case of `C[Si](C)(C)O[Si](C)(CCCC1(CCC[Si](C)(O[Si](C)(C)C)O[Si](C)(C)C)c2cc(-c3ccc(-c4ccccc4)cc3)ccc2-c2ccc(-c3ccc(-c4ccccc4)cc3)cc21)O[Si](C)(C)C` [Compound #2, 2,7-bis(biphenyl)-9,9′-di-[3-(1-trimethylsiloxy-1,3,3,3-tetramethyldisiloxan-1-yl)propyl]-fluorene], the “maximum absorption peak wavelength” value [2] is reported as 338 nm, the molar absorption coefficient [2] is reported as 7.07×10^4 and the “solubility” value [1] is reported as 1.3 mM (≈ 1290 µg/mL).

With `C[Si](C)(C)O[Si](C)(C)O[Si](C)(C)O[Si](C)(C)O[Si](C)(C)CCCC1(CCC[Si](C)(C)O[Si](C)(C)O[Si](C)(C)O[Si](C)(C)O[Si](C)(C)C)c2cc(-c3ccc(-c4ccccc4)cc3)ccc2-c2ccc(-c3ccc(-c4ccccc4)cc3)cc21` [Compound #4, 2,7-bis(biphenyl)-9,9′-di-[3-(undecamethylpentasiloxan-1-yl)propyl]fluorene] the “maximum absorption peak wavelength” value [2] was 338 nm, the molar absorption coefficient [2] was 6.81×10^4 and the “solubility” value [1] was 6.0 mM (≈ 7750 µg/mL).
